Values of other authors as cited in patent US11571438B1, “Nutraceutical compositions to up-regulate SIRT1 and methods of use” (priority 2022, dated 2023).

Key:
[1] = tested on: AMPK; settings: individual administration
[2] = tested on: mTOR; settings: individual administration

| Structure (SMILES) | AMPK activation [1] | mTOR inhibition [2] |
| --- | --- | --- |
| COc1ccc2cc3[n+](cc2c1OC)CCc1cc2c(cc1-3)OCO2 [berberine] | statistically significant increase | statistically significant increase |
| COc1cc(/C=C/C(=O)O)ccc1O [ferulic acid] | statistically significant increase | statistically significant increase |
| O=c1c(O)c(-c2ccc(O)c(O)c2)oc2cc(O)cc(O)c12 [quercetin] | statistically significant increase | statistically significant increase |
| OCCc1ccc(O)cc1 [tyrosol] | statistically significant increase | statistically significant increase |
